This is an account of results in the METLIN SMRT retention time set (Domingo-Almenara et al. 2019).

The data set is described as follows: gradient 5% acetonitrile 3 min, to 50% in 2 min, to 85% in 15 min, held 3 min, 100 µL/min. To be noted: column: Zorbax Extend-C18 2.1 x 50 mm; eluents: water / acetonitrile, 0.1% formic acid. The essentials: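 Over 3 months, pure standards in mixtures of ~100 molecules were run by HPLC coupled to a quadrupole time-of-flight mass spectrometer in positive and negative ionization mode. The column was a Zorbax Extend-C18 (2.1 × 50 mm, 1.8 μm) at 100 μL/min, eluted with water and acetonitrile each holding 0.1% formic acid, with 40 μL dead and 900 μL dwell volumes. Retention time was determined from adduct peaks chosen by software and checked manually.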
`CC1CCC2(CC1)NC(=O)N(CC(=O)NCc1ccc3c(c1)OCO3)C2=O` (centres undefined) returned an RP-LC retention time of 749 s.
For `CCc1cc(=O)n(CC(=O)Nc2cccc(C)c2C)c(N2CCOCC2)n1` the value was 764 s.
For `Cc1cccc(C(=O)N2CCc3cc(CNS(=O)(=O)c4ccc5c(c4)CC(=O)N5C)ccc32)c1` the value was 836 s; for `CN1C(=O)COc2ccc(-c3csc(NC(=O)c4ccccc4)n3)cc21`, 926 s; for `Cc1ccc2c(Nc3ccc(CC(=O)O)cc3)c(C(=O)N3CCCCC3C)cnc2n1` (centres undefined), 580 s.
As for `Cn1cccc1CN(Cc1cccs1)C(=O)CN1C(=O)CCC1=O`, the figure is 731 s; as for `CC(=O)N1CCc2sc(S(=O)(=O)N3CCN(c4ccccc4Cl)CC3)cc2C1`, 945 s; as for `Cc1ccc(C(=O)N2CCCCCCNC(=O)[C@@H]3CCC[C@@H]32)s1`, 792 s.
In the case of `CN(CC1CCOCC1)C(=O)Nc1ccc(C(F)(F)F)cc1`, the RP-LC retention time was determined as 812 s.
For `O=C(Nc1ccccc1)c1nnc(CCC(=O)N2CCN(c3ccccn3)CC2)s1` the value was 617 s; for `Cc1ccc(CNS(=O)(=O)c2cc(-c3nc(C(C)(C)C)cs3)cs2)o1`, 1190 s.
In turn, `Cc1ccc(-c2nc(-c3ccc4nnn(C)c4c3)no2)cc1C` had an RP-LC retention time of 1170 s.
Regarding `CCCN(C)CC1(O)CCC2(CCN(Cc3ccc(F)cc3)CC2)CC1`, the RP-LC retention time was 547 s.
For `CCCN(Cc1ccc(OC)c(OC)c1)Cc1cc(=O)n2cccc(C)c2n1` the value was 620 s.
`O=C(NCC1CCCO1)NC1CCN(c2nc3cccnc3n(Cc3ccccc3)c2=O)CC1` (centres undefined) had an RP-LC retention time of 859 s.
`Cc1cccc(-c2nnc(-c3cc(S(=O)(=O)N(C)C)ccc3F)o2)c1` yielded an RP-LC retention time of 994 s.
For `O=C(C1=CN(c2cccc(F)c2)c2cc(F)ccc2S1(=O)=O)N1CCCCC1` the value was 872 s; for `CCc1cccc(NC(=O)C2CCN(S(=O)(=O)c3ccc4c(c3)sc(=O)n4C)CC2)c1`, 862 s.
`CCCn1cc(C(=O)NCCCOCC)c(S(=O)(=O)N2CCN(c3ccccc3Cl)CC2)n1` returned an RP-LC retention time of 1090 s.
With `O=C(Cc1csc2nc(-c3cccc(Br)c3)cn12)NC1CCCC1`, the RP-LC retention time stood at 888 s.
For `CCOC(=O)Cn1c(CN(C)Cc2ccccc2)nc2c1c(=O)n(C)c(=O)n2C` the value was 643 s; for `Cc1noc(C)c1-c1ccc(S(=O)(=O)NCCc2ccc(S(N)(=O)=O)cc2)cc1`, 740 s.
As for `CCCC(=O)Nc1nc(-c2ccc3c(c2)N(C)C(=O)CO3)c(C)s1`, the figure is 856 s.
For `CN(C)CCNC(=O)c1nc2ccccn2c1-c1ccc(Cl)cc1` the value was 626 s; for `Cc1cccc(Nc2c(-c3ccc(N(C)C)cc3)nc3cnccn23)c1C`, 900 s.
As to `CCOc1ccc(NC(=O)Cn2cnc3nc(N4CCCC(C(=O)NC(C)C)C4)sc3c2=O)cc1` (centres undefined), the RP-LC retention time is 698 s.
For `CCCn1cc(CCNS(=O)(=O)CCC)c2cccnc21` the value was 720 s; for `CSc1ccc(NC(=O)c2cn3c(n2)COCC3)cc1`, 684 s; for `CC1CCN(S(=O)(=O)c2ccc(-c3nnc(C(=O)NCCN4CCCC4)o3)cc2)CC1`, 686 s.
As for `CCC1CN2C=Nc3oc(C)c(C(=O)Nc4ccccc4OC)c3C2=N1` (centres undefined), the figure is 668 s.
As for `CCOc1cc(C(=O)Nc2nnc(-c3ccc(Cl)s3)o2)cc(OCC)c1OCC`, the figure is 986 s; as for `Cc1ccc(N2CC(c3nc(-c4ccc5c(c4)oc(=O)n5C(C)C)no3)CC2=O)cc1` (centres undefined), 990 s.
`N#Cc1cccc(NC(=O)C2CCN(S(=O)(=O)c3cc(-c4noc(C5CCC5)n4)cs3)CC2)c1` displayed an RP-LC retention time of 1070 s.
For `COc1cc(OC)c(NC(=O)N2CCc3cn(C)c4cccc(c34)C2)cc1Cl` the value was 887 s.
For `CCCN(C(=O)c1cccc(OC)c1)c1nc(-c2ccccc2)cs1` the value was 1350 s; for `COc1ccc(C)cc1NC(=O)Cn1nc2cc(C)nc(Nc3ccc(F)cc3)n2c1=O`, 1100 s; for `O=C(Cn1c(=O)c2cc(-c3cccs3)nn2c2ncccc21)NCc1ccccc1`, 830 s.
For the compound `CCc1cc(=O)n(CC(=O)NCc2ccc(Cl)cc2)c(N)n1`, the RP-LC retention time came to 627 s.
For `COc1ccccc1NS(=O)(=O)c1cc(N)ccc1N1CCCCC1` the value was 744 s.
Turning to `O=C(c1ccc2c(c1)CCCC2)N1CCN(c2ccccc2)CC1`, the RP-LC retention time was 1050 s.
Turning to `CCCCc1ccc(NC(=O)N2CCCC2c2nncn2C2CCCC2)cc1` (centres undefined), the RP-LC retention time is 864 s.
As for `CCNC(=O)C1CC(=O)N(C2CCCCC2)C1` (centres undefined), the figure is 623 s; as for `CCc1cc(N2CCN(C(=O)c3ccc(Br)cc3)CC2)nc2nnc(C)n12`, 640 s.
With `Cc1nn(-c2ccc(C(=O)NCc3cc(F)cc(F)c3)cn2)c(C)c1C`, the RP-LC retention time is 918 s.
`Cc1ccc(NC(=O)N2CCN(c3nc4ccccc4nc3C(F)(F)F)CC2)cc1F` displayed an RP-LC retention time of 1150 s.
`CCn1c(C2CCCN(C(=O)NC(C)C)C2)nn(C)c1=O` (centres undefined) came in with an RP-LC retention time of 613 s.
As for `Cc1cc(C)cc(NC(=O)C2CCN(S(=O)(=O)c3ccc(-c4noc(C5CC5)n4)cc3)CC2)c1`, the figure is 838 s; as for `Cc1ccc(Cn2c(=O)n(CCNC(=O)c3cccn3C)c3ncccc32)cc1`, 822 s.
For `Cc1nnc(NC(=O)Cn2cccn2)s1` the value was 562 s; for `CC(=O)N1CCc2cc(N3CC(C(=O)Nc4cc(F)cc(F)c4)CC3=O)ccc21` (centres undefined), 772 s; for `Cc1cc(-c2ccc(C)c(S(=O)(=O)Nc3ccc(Cl)cc3)c2)n[nH]1`, 898 s.
As for `Cc1cc(N2C=NS(=O)(=O)c3cccnc32)ccc1F`, the figure is 807 s; as for `Cc1ccc(CN2C(=O)NC3(CCN(C(=O)c4cccn4C)CC3)C2=O)cc1`, 787 s; as for `COC(=O)c1cc(S(=O)(=O)N2CCCC2C(=O)Nc2ccc(C#N)cc2)cn1C` (centres undefined), 841 s.
With `O=C(Cc1ccsc1)N1CCC2(CC1)CC(N1CCCCC1)CCO2` (centres undefined), the RP-LC retention time came to 590 s.
For `CC(NC(=O)C(C)(C)C)C(=O)N1CCN(c2ccccn2)CC1` (centres undefined) the value was 574 s; for `CCCc1cc(N2CCN(C(=O)Cc3ccsc3)CC2)nc2nnc(CC)n12`, 649 s; for `O=S(=O)(c1cccc2cccnc12)N1CCCn2nc(-c3cccs3)cc2C1`, 900 s.
As for `COc1cc(Cl)ccc1C(=O)N1CCC(COc2ccc(C(=O)NC(C)C)cc2)CC1`, the figure is 801 s.
`CN1CCN(CCNC(=O)C2CCc3sc(C(=O)N4CCOCC4)cc3C2)CC1` (centres undefined) registered an RP-LC retention time of 543 s.
Compound `Cc1ccc(C)c(NC(=O)N2CCN(c3ccc(=O)n(-c4ccccc4)n3)CC2)c1` gave an RP-LC retention time of 820 s.
As for `Cc1cc(C2CCCN2C(=O)c2cc(-c3ccccc3)no2)no1` (centres undefined), the figure is 868 s.
As for `CC(=O)N1CCC2(CC1)CC(=O)c1ccc(O)c(O)c1O2`, the figure is 585 s; as for `O=C(Cn1c(=O)cc(-c2nc(C3CC3)no2)c2ccccc21)Nc1ccc2c(c1)OCO2`, 908 s.
For `CCOc1cccc(-c2noc(Cn3c(=O)n(Cc4ccccc4)c(=O)c4sccc43)n2)c1` the value was 1160 s.
For the compound `CN1CCN(C(=O)c2cc(-c3cccs3)n(CC(=O)NCc3ccco3)n2)CC1`, the RP-LC retention time came out at 572 s.
For `COC(=O)c1ccc(NC(=O)C2CCCN(c3ncnc4c3nc3n4CCCCC3)C2)cc1` (centres undefined) the value was 808 s.
Compound `CCn1nccc1C(=O)Nc1ccc2c(c1)OCO2` showed an RP-LC retention time of 693 s.
As for `CN1CCCc2cc(C(CNC(=O)C(=O)Nc3ccc4c(c3)OCO4)N3CCCCC3)ccc21` (centres undefined), the figure is 718 s.
For `O=C(CC1CCCN(c2cnn(CC3CC3)c(=O)c2)C1)N1CCC2(CC1)OCCO2` (centres undefined) the value was 706 s; for `CCc1nc(-c2ccc(-c3noc(-c4ccncc4)n3)cc2)cs1`, 1230 s; for `Cn1nc(-c2nnc(-c3ccc(F)cc3)o2)c2c1CCN(S(=O)(=O)c1ccc(C(C)(C)C)cc1)C2`, 1180 s.
As for `CC1Cc2ccccc2N1C(=O)C1CCN(S(=O)(=O)c2cn(C(C)C)cn2)CC1` (centres undefined), the figure is 779 s.
Turning to `CCn1cnnc1C1CCCCN1S(=O)(=O)c1ccc(C#N)cc1` (centres undefined), the RP-LC retention time was found to be 695 s.
For `CCc1noc(NC(C)=O)c1-c1ccc(C)c(S(=O)(=O)Nc2ccc(OC)cc2OC)c1` the value was 794 s; for `COc1ccccc1C1(CNS(=O)(=O)c2ccc(NC(=O)C(C)C)cc2)CCOCC1`, 806 s; for `Cc1ccn(-c2cc(Cl)ccc2[C@@H](Oc2cc(-c3ccc(C[C@H](N)C(=O)O)cc3)nc(N)n2)C(F)(F)F)n1`, 834 s.
As for `CCN1CCN(C(=O)C2CCN(S(=O)(=O)c3ccc4c(c3)sc(=O)n4C)CC2)CC1`, the figure is 551 s; as for `NC(=O)CSc1nnc(CCc2nc3ccccc3s2)o1`, 633 s.
